Earlier results as cited in patent US7417165B2, “Crystalline forms of pregabalin” (Teva Pharmaceutical Industries Ltd., priority 2005, dated 2008).

Legend:
[1] = system: GAD (L-glutamic acid decarboxylase); details: background statement, no data
[2] = system: seizure; details: background statement, no data

CC(C)C[C@H](CN)CC(=O)O [(S)-Pregabalin, (S)-(+)-3-(aminomethyl)-5-methylhexanoic acid]
activation of GAD (L-glutamic acid decarboxylase) [1]: activate | protective effect on seizure [2]: dose dependent protective effect
